The values below are quoted from earlier work in PMC6675714 (Cancer Medicine, 2019).

Read-outs that look alike come from different tables or passages of the source.

For one series, the system named is Caki‐1 tumor. As to conditions: cited from earlier work; for T/C (tumor growth): same xenograft mice model (Caki‐1, NMRI:nu/nu).
A further series deals with advanced stages of CCRCC. The note with it: chemo‐monotherapies; cited from earlier work.
For the next series, the system named is H‐Ras/Raf‐1 interaction. Also noted: method as in PMID 28959398. As to conditions: cited from earlier work.
The next series concerns A431 tumor. Also noted: method as in PMID 28959398. As to conditions: A431 tumor‐bearing female BALB/cA.Cg‐Foxn1^nu/CrINarI; cited from earlier work.
[1] abbreviates: Caki‐1 tumor‐bearing female NMRI:nu/nu mice.

For `COc1ccc(C[c-]2cccc2)cc1.COc1ccc(C[c-]2cccc2)cc1.[Cl][V+2][Cl]` [Vanadocene Y], in the series with Caki‐1 tumor (setting [1]), the Side effects entry was “no severe side effects”.
In the case of `CCCCCOC(=O)Nc1nc(=O)n([C@@H]2O[C@H](C)[C@@H](O)[C@H]2O)cc1F` [capecitabine], in the series with advanced stages of CCRCC, the Response rate is about 20% and the Survival is recorded as 15 months.
For `O=c1[nH]cc(F)c(=O)[nH]1` [5‐FU], in the series with advanced stages of CCRCC, the Response rate is listed as about 20% and the Survival is given as 15 months.
For [Ir(tpy)(dnbpy)], the “H‐Ras/Raf‐1 interaction” value in the series with H‐Ras/Raf‐1 interaction is “inhibiting”. For the same compound, the Tumor growth entry with A431 tumor is given as “tumor growth inhibition”.
In the case of `CC(=O)OCC1OC([S][Au-][c]2n(Cc3ccccc3)c(-c3ccccc3)c(-c3ccccc3)[n+]2Cc2ccccc2)C(OC(C)=O)C(OC(C)=O)C1OC(C)=O` (centres unmarked) [NHC‐AuSR], in the series with Caki‐1 tumor, the “T/C (tumor growth)” value was 47%. For the same compound, in the series on Caki‐1 tumor (same xenograft mice model), the Side effects result was “no severe side effects” and the “ki‐67 or CD31 markers” value is “no decrease”.
For the compound `[Cl][Au-][c]1n(Cc2ccccc2)c(-c2ccccc2)c(-c2ccccc2)[n+]1Cc1ccccc1` [NHC‐Au‐Cl], the “T/C (tumor growth)” value in the series with Caki‐1 tumor is 47%. For the same compound, in the series with Caki‐1 tumor (same xenograft mice model), the Side effects entry is on record as “no severe side effects” and the “ki‐67 or CD31 markers” value is listed as “no decrease”.
On to `CCN(CC)c1ccc(C[c-]2cccc2)cc1.CCN(CC)c1ccc(C[c-]2cccc2)cc1.[Cl][Ti+2][Cl]` [Titanocene Y*], for which the Side effects result with Caki‐1 tumor (setting [1]) is on record as “no severe side effects”. In the series on Caki‐1 tumor (Caki‐1 xenograft), the “Reduction of proliferation marker ki‐67” value was 21%, the Vascularization entry was “decreased vascularization” and the Weight loss result is given as “dose‐dependent weight loss”.
